# Key:
# Cdc7/ASK = Cdc7/ASK (Homo sapiens, UniProt O00311); assay: Cdc7 biochemical assay Method 1: 384 well ELISA, MCM2 whole protein substrate, Phospho MCM2 (S53) antibody; set-up: purchased; details: ATP 2 μM, 90 minutes, read-out: Biochemical method 1 (pIC50) (converted)
# Protocol: This protocol describes a method for assaying Cdc7/ASK for activity. The assay is a 384 well ELISA assay, utilising a whole protein substrate (MCM2) and an antibody against Phospho MCM2 (S53). This site is thought to be specific to Cdc7/ASK phosphorylation and the assay has been validated using knockout mutants.
# • TBS: 25 mM Tris pH 7.2, 150 mM NaCl. (Dilute 10× stock by 1:10). • Wash Buffer: TBS+0.05% Tween 20. (Add 100 mL 1 M Tris pH 7.2, 120 mL 5 M NaCl and 2 mL 100% Tween 20 per 4 L). • Kinase Reaction Buffer: 50 mM Tris-HCl pH 8.5, 10 mM MgCl2, 1 mM DTT. (Dilute 10× stock by 1:10 and add 100 μL 1M DTT per 100 mL prior to assay). • Diethanolamine Buffer: 1 M diethanolamine pH 9.8, 0.5 mM MgCl2. • Stop Solution: 1 M NaOH. • MCM2 was expressed and purified in-house and used in the assay at a final assay concentration of 436 ng/well. • Cdc7/ASK is purchased from commercial suppliers and used in the assay at a final assay concentration of 37.97 ng/well or 20.63 nM. • ATP used as a final assay concentration of 2 μM. • Primary Antibody: Rabbit anti-Phospho MCM2 (S53 Antibody (BL3353)), is purchased from commercial suppliers at 0.2 mg/mL and used at a final assay concentration by diluting 1:800 in TBS. • Secondary Antibody: Anti-Rabbit/AP Antibody is supplied is purchased from commercial suppliers at 1 mg/mL and used at a final assay concentration by diluting 1:2000 in TBS. • Development Reagent: Dissolve one 20 mg PNPP tablet (Sigma, product N2765, 20 mg per tablet) per 20 mL diethanolamine Buffer (or one 5 mg PNPP tablet per 5 mL diethanolamine buffer). Cover in foil and leave shaking on a roller shaker at room temperature for up to an hour to dissolve. Methods • 1. Add 20 μL 1× working stock of Substrate (MCM2) in TBS to all wells of a clear, 384 well, Nickel-chelate microplate to give a final concentration of 250 ng/well. Incubate at room temperature for at least 1 hour. Plates can be pre-coated for 1 hour and stored at 4° C. for up to 8 days. • 2. Wash with TBS+0.05% Tween 20 (80 μL x 3). • 3. Add 2 μL 10× test compounds, including the positive control, in 40% DMSO/water to ‘test’ wells. Add 2 μL 40% DMSO/water to ‘control’ and ‘blank’ wells. The final DMSO concentration will be 4%. • 4. Add 13 μL CDCl7/ASK Kinase (1.5× stock) in Kinase Reaction Buffer to ‘test’ and ‘control’ wells to give a final concentration of […]. Add 13 μL Kinase Reaction Buffer to ‘blank’ wells. • 5. Add 5 μL ATP (4× stock) in Kinase Reaction Buffer to all wells to give a final concentration of 2 μM. • 6. Incubate at room temperature for 90 minutes. • 7. Wash with TBS+0.05% Tween 20 (80 μL x 3). • 8. Add 20 μL 1× working solution of Primary Antibody in TBS to all wells. Incubate at room temperature for 30 minutes. • 9. Wash with TBS+0.05% Tween 20 (80 μL x 3). • 10. Add 20 μL 1× working solution of Secondary Antibody in TBS to all wells. Incubate at room temperature for 30 minutes. • 11. Wash with TBS+0.05% Tween 20 (80 μL x 3). • 12. Add 20 μL 1× Development Reagent to all wells. • 13. Incubate at room temperature for 2 hours. Stop the reaction by adding 20 μL Stop Solution to all wells and record Absorbance on a Pherastar plate reader.
# Percentage inhibition values were calculated from absorbance values, using the no compound (DMSO) and no enzyme control values as 0% and 100% inhibition, respectively. IC50 determination was performed with ExcelFit software (IDBS) using curve fit 205. Z′ factors were determined for each plate tested and were all above 0.5.
# Cdc7 = Cdc7 (Homo sapiens, UniProt O00311); assay: Cdc7 cell pharmacodynamics assay Method 1: pS53MCM2 levels in HCT116 cells; type: cell-based; set-up: endogenous in cells; details: 6 hours treatment, read-out: Biomarker Method 1 (pEC50) (converted)
# Cdc7, sequence (O00311 whole entry): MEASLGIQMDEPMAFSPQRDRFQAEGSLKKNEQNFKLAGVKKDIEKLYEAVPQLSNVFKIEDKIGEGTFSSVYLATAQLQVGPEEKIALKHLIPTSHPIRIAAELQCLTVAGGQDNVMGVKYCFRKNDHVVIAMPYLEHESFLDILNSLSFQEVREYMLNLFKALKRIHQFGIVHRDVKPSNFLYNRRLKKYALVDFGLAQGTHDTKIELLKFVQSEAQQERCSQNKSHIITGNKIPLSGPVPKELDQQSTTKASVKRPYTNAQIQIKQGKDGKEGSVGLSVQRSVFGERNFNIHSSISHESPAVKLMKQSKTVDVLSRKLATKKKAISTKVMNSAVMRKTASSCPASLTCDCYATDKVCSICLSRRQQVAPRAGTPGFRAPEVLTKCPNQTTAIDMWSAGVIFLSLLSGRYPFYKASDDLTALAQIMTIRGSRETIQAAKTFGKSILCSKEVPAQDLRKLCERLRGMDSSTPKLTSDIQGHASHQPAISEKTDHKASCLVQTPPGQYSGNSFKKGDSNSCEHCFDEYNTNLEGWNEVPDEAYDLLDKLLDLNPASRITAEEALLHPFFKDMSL
# Cdc7, sequence (Q9UBU7 whole entry partner): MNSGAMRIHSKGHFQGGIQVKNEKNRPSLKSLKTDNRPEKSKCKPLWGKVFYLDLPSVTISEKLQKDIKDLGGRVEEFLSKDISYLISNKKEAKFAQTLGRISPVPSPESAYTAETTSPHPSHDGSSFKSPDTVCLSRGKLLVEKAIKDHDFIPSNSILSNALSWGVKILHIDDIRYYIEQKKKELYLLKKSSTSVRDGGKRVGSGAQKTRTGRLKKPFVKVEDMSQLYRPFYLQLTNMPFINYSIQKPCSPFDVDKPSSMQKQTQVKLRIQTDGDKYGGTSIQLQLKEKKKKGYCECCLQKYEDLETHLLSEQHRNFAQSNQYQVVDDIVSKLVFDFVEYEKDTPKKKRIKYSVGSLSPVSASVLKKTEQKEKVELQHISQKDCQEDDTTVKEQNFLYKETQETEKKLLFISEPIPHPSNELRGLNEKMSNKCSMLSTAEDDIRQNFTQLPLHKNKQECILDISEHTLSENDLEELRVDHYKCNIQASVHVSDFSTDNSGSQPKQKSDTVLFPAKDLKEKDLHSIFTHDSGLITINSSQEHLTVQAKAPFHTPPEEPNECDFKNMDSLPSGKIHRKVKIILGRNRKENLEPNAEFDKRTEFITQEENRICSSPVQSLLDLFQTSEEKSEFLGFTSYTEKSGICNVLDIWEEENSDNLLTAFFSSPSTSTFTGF
# From the text: This protocol describes a method to investigate the inhibition of Cdc7 activity of compounds by measuring pS53MCM2 levels in cells after treatment.
# • HCT116 cells (wild type P53 positive) • McCoys 5A media (PAA Laboratories Ltd, E15-022) • 10% FCS (Sera Laboratories International Ltd, EU000F Batch: 108005) • 100× L-Glutamine (Invitrogen, 25030-024) • D-PBS without CaCl2 and MgCl2 (Invitrogen, ref. 14190-094) • Trypsin/EDTA (Invitrogen 25300-054) • 2% BSA in PBS • Cell Extraction Buffer (Invitrogen FNN0011) • Protease inhibitor cocktail (Sigma P-2714) • PMSF 0.3M stock in DMSO (Sigma P7626) • Antibody—rabbit pMCM2 Ser53 (Bethyl #A300-756A) • Antibody—goat MCM2 (Bethyl #A300-122A) • Antibody—goat Anti Rabbit IgG HRP (Perbio Science UK Ltd 31462) • 1×PBS • FACE Wash buffer (0.02% Triton X100 in 1×PBS) • SuperSignal ELISA Pico Chemiluminescent Substrate (Perbio Science UK Ltd 37070) Method • 72 hours prior to the start of the experiment plate 1×10^6 HCT116 cells in a 150 cm^2 flask in complete McCoys 5A media (+10% FCS+1× L-glutamine). • Plate 20,000 HCT116 cells per well in standard TC treated 96 well plate in 100 μL complete McCoys 5A media. • Allow cells to settle overnight in incubator set at 37° C. and 5% CO2. • Remove intermediate plate from fridge and place at 37° C. overnight to allow to equilibrate. • Cell treatment: cell assay plate 100 μL; daughter to cell transfer volume 3.33 μL; daughter volume 45 μL; mother plate to daughter volume 5 μL. • Once all cells are treated remove the cells to the incubator and incubate for 6 hours. • Dilute the capture antibody (total MCM2 #A300-122A) 1 in 250 in the required volume of PBS (5 mL per assay plate) and add 50 μL to each well of a Hybond plate excluding wells 12E to 12H. In these wells add 50 μL PBS. Seal the plate and incubate at room temperature fora minimum of 2 hours. • Defrost aliquot of Invitrogen Cell Extraction Buffer (FNN0011) on ice and supplement with appropriate volume of both Sigma protease inhibitor cocktail (P-2714) and PMSF (final cone 1 mM from a […] in DMSO). • After the 6 hour cell treatment time tap out the media from the assay plates and place them in the −70° C. freezer for at least 5 minutes. • Remove plates from freezer and add 20 μL of ice cold complete lysis buffer on ice. Incubate cells for 30 minutes at 4° C. • Add 80 μL per well 2% BSA. • Transfer 80 μL from the lysis plate to the same wells in the capture/ELISA plate. Cover with plate seal and incubate plates overnight at 4° C. • Wash plates with PBS, remove any residual remaining liquid and add 50 μL per well of pMCM2 Ser53 antibody (#A300-756A) diluted 1 in 100 in 2% BSA. Cover plate and incubate at room temperature for 2 hours with gentle shaking. • Wash plates with PBS, remove any residual remaining liquid and Incubate with 50 μL goat anti rabbit antibody (1 in 800 dilution in 2% BSA) for 1 hour at room temperature. • Wash plates with PBS, remove any residual remaining liquid and add 50 μL mixed SuperSignal Pico substrate. • Incubate each plate for 5 minutes at room temperature shielding the plates from direct light (with a cover plate). Read plates with the luminescent detection. Method 2
# Cdc7/ASK, sequence (O00311 whole entry): as the sequence (O00311 whole entry) above
# Cdc7/ASK, sequence (Q9UBU7 whole entry partner): as the sequence (Q9UBU7 whole entry partner) above
Compound,IC50 (Cdc7/ASK) [µM],EC50 (Cdc7) [µM]
"Cc1ncsc1-c1nc(C2CCNCC2)c(Cl)c(=O)[nH]1 [Compound 2, 5-chloro-2-(4-methylthiazol-5-yl)-4-(4-piperidyl)-1H-pyrimidin-6-one]",0.00316,2
"Cc1ncsc1-c1nc(C2CCOCC2)c(F)c(=O)[nH]1 [Compound 8, 5-fluoro-2-(4-methylthiazol-5-yl)-4-tetrahydropyran-4-yl-1H-pyrimidin-6-one]",0.0302,0.331
"Cc1ncoc1-c1nc(C2CCOCC2)c(Cl)c(=O)[nH]1 [Compound 12, 5-chloro-2-(4-methyloxazol-5-yl)-4-tetrahydropyran-4-yl-1H-pyrimidin-6-one]",0.363,3.63
"CCc1ncsc1-c1nc(C2CCOCC2)c(Cl)c(=O)[nH]1 [Compound 13, 5-chloro-2-(4-ethylthiazol-5-yl)-4-tetrahydropyran-4-yl-1H-pyrimidin-6-one]",0.0331,1.1
"CCc1[nH]ncc1-c1nc(C2CCOCC2)c(Cl)c(=O)[nH]1 [Compound 15, 5-chloro-2-(5-ethyl-1H-pyrazol-4-yl)-4-tetrahydropyran-4-yl-1H-pyrimidin-6-one]",0.0372,1.74
"Cc1ncsc1-c1nc(C2CCN(C(=O)c3cc(C)n(C)n3)CC2)c(Cl)c(=O)[nH]1 [Compound 23, 5-chloro-4-[1-(1,5-dimethylpyrazole-3-carbonyl)-4-piperidyl]-2-(4-methylthiazol-5-yl)-1H-pyrimidin-6-one]",0.00331,3.89
"Cc1cc(C(=O)N2CCC(c3nc(-c4scnc4C)[nH]c(=O)c3Cl)CC2)no1 [Compound 25, 5-chloro-4-[1-(5-methylisoxazole-3-carbonyl)-4-piperidyl]-2-(4-methylthiazol-5-yl)-1H-pyrimidin-6-one]",0.00479,0.447
"Cc1ncsc1-c1nc(N2CCC(O)CC2)c(Cl)c(=O)[nH]1 [Compound 29, 5-chloro-4-(4-hydroxy-1-piperidyl)-2-(4-methylthiazol-5-yl)-1H-pyrimidin-6-one]",0.00316,0.158
"Cc1ncsc1-c1nc(N2CCC(C)CC2)c(Cl)c(=O)[nH]1 [Compound 30, 5-chloro-4-(4-methyl-1-piperidyl)-2-(4-methylthiazol-5-yl)-1H-pyrimidin-6-one]",0.00347,0.251
"Cc1ncsc1-c1nc(N2CCNC(C(F)(F)F)C2)c(Cl)c(=O)[nH]1 (centres unmarked) [Compound 31, 5-chloro-2-(4-methylthiazol-5-yl)-4-[3-(trifluoromethyl)piperazin-1-yl]-1H-pyrimidin-6-one]",0.00363,0.0851
"Cc1ncsc1-c1nc(N2CCN[C@H](C)C2)c(Cl)c(=O)[nH]1 [Compound 32, 5-chloro-4-[(3R)-3-methylpiperazin-1-yl]-2-(4-methylthiazol-5-yl)-1H-pyrimidin-6-one]",0.00871,0.263
"Cc1ncsc1-c1nc(N2CCC(CO)CC2)c(Cl)c(=O)[nH]1 [Compound 33, 5-chloro-4-[4-(hydroxymethyl)-1-piperidyl]-2-(4-methylthiazol-5-yl)-1H-pyrimidin-6-one]",0.00269,0.1
"Cc1ncsc1-c1nc(N2CCCC(F)(F)C2)c(Cl)c(=O)[nH]1 [Compound 35, 5-chloro-4-(3,3-difluoro-1-piperidyl)-2-(4-methylthiazol-5-yl)-1H-pyrimidin-6-one]",0.00141,0.024
"Cc1ncsc1-c1nc(N2CCCC(CO)C2)c(Cl)c(=O)[nH]1 (centres unmarked) [Compound 36, 5-chloro-4-[3-(hydroxymethyl)-1-piperidyl]-2-(4-methylthiazol-5-yl)-1H-pyrimidin-6-one]",0.00589,0.158
"Cc1ncsc1-c1nc(N2CCN[C@@H](C)C2)c(Cl)c(=O)[nH]1 [Compound 37, 5-chloro-4-[(3S)-3-methylpiperazin-1-yl]-2-(4-methylthiazol-5-yl)-1H-pyrimidin-6-one]",0.00331,0.11
"Cc1ncsc1-c1nc(N2CCNCC2)c(Cl)c(=O)[nH]1 [Compound 38, 5-chloro-2-(4-methylthiazol-5-yl)-4-piperazin-1-yl-1H-pyrimidin-6-one]",0.00229,0.0832

# From patent US11766434B2, “Pyrimidinone derivatives as CDC7 inhibitors” (Cancer Research Technology Limited, priority 2016, dated 2023)
